Where “and” joins values, the source holds several entries; their conditions need not be identical. Identical values can stand only once.
Tests used:
[1] = test system: spermatozoon in epididymis; assay: Concentration of spermatozoon in epididymis of rats, 60 days; type: in vivo, male rats; conditions: n=6
[2] = Plasma protein binding by equilibrium dialysis, human; type: in vitro ADME; conditions: 1 uM, equilibrium dialysis 4h 37C
CYP 2C19 = CYP 2C19 (Homo sapiens, UniProt P33261); assay: CYP inhibition; type: in vitro ADME; conditions: concentrations up to 10 uM
CYP 2C19, sequence (P33261 whole entry): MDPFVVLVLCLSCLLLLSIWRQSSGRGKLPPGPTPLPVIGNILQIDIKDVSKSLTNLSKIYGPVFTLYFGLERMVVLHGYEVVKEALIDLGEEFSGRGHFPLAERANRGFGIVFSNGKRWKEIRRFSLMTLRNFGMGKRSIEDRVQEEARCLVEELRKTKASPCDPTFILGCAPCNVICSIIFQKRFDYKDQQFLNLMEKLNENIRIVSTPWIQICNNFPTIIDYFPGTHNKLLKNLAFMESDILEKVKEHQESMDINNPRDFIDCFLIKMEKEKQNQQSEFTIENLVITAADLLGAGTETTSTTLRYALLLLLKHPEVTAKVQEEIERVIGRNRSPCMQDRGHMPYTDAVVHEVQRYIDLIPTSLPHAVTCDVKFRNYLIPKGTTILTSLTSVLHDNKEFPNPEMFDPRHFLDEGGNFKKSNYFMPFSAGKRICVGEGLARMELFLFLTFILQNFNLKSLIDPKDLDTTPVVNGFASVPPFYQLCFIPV

Rat pharmacokinetics = conditions: for C24h: after 14 administrations; for AUC(0-inf) / k el / MRT inf / concentration at 24 h / Cmax / Tmax / half-life: male, Sprague Dawley, rat, in vivo
LnCaP-Z2 tumors = assay: LnCaP-Z2 xenograft antitumor efficacy; type: in vivo, male CB17-SCID mice
AR = target: T1, AR (Homo sapiens, UniProt P10275); type: cell-based
T1 sequence (P10275 1-920): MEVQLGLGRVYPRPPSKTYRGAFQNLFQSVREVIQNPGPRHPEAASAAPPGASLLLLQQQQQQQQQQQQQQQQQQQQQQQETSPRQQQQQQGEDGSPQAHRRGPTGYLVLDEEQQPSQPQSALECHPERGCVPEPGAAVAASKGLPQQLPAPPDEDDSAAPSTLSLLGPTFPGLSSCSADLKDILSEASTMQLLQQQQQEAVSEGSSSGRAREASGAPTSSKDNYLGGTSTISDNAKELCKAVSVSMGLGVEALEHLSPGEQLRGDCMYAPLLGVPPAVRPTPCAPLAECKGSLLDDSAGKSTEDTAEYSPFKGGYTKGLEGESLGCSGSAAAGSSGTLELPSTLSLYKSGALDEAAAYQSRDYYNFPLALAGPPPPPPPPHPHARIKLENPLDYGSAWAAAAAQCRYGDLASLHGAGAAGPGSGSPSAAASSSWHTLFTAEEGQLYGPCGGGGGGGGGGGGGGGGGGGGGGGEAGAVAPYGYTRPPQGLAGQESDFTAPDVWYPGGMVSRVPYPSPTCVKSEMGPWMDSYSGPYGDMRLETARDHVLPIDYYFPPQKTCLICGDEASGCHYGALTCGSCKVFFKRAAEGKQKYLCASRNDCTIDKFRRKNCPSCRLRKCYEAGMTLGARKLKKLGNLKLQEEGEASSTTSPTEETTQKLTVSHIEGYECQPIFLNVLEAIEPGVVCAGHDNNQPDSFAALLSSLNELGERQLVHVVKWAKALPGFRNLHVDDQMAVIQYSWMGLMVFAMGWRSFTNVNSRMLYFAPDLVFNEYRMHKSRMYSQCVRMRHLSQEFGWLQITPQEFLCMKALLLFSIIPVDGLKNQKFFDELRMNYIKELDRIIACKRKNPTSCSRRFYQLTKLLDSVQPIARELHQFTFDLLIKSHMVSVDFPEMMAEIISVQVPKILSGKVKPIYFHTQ

CYP3A = CYP3A induction in human hepatocytes; type: in vitro ADME; conditions: for CYP3A induction, in words: 1uM; for CYP 3A induction, Positive control, %: human hepatocytes, 48 hours
[3] = Brain and prostate distribution after single IV in rats; conditions: rat, in vivo
[4] = Plasma protein binding by equilibrium dialysis, dog; type: in vitro ADME; conditions: Dogs plasma, 1 uM, equilibrium dialysis 4h 37C
[5] = test system: AR-dependent PSA expression in prostate cancer cells LnCAP; assay: DHT-induced PSA expression in LnCAP cells; type: cell-based
[6] = Plasma protein binding by equilibrium dialysis, rat; type: in vitro ADME; conditions: Rats plasma, 1 uM, equilibrium dialysis 4h 37C
[7] = Drug concentration in plasma and xenograft tumor after 21-day dosing; conditions: male, CB17-SCID, mouse, in vivo
AR-LBD = target: T2, AR-LBD (Homo sapiens, UniProt P10275); assay: biochemical
T2 sequence (P10275 669-900 limits assumed): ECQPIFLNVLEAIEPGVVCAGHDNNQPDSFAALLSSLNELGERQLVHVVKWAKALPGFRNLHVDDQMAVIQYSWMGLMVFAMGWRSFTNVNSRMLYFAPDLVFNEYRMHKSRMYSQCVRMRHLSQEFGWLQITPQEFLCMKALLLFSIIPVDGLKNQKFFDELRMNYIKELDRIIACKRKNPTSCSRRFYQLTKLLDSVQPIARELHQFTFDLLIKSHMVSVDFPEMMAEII

CYP 2C9 = CYP 2C9 (Homo sapiens, UniProt P11712); assay: CYP inhibition; type: in vitro ADME; conditions: concentrations up to 10 uM
CYP 2C9, sequence (P11712 whole entry): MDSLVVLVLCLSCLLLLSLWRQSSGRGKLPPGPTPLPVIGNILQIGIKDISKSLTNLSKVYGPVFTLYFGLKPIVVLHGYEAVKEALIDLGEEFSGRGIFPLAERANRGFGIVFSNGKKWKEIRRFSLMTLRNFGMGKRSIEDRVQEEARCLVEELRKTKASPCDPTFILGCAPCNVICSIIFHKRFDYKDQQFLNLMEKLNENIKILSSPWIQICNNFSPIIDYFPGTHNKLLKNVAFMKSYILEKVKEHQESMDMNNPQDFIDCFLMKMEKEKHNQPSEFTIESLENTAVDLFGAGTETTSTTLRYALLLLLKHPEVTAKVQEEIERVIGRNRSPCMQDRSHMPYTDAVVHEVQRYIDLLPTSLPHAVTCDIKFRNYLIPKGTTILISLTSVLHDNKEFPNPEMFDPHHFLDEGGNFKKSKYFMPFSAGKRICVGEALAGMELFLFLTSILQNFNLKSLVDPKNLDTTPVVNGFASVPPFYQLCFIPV

CYP 2D6 = CYP 2D6 (Homo sapiens, UniProt P10635); assay: CYP inhibition; type: in vitro ADME; conditions: concentrations up to 10 uM
CYP 2D6, sequence (P10635 whole entry): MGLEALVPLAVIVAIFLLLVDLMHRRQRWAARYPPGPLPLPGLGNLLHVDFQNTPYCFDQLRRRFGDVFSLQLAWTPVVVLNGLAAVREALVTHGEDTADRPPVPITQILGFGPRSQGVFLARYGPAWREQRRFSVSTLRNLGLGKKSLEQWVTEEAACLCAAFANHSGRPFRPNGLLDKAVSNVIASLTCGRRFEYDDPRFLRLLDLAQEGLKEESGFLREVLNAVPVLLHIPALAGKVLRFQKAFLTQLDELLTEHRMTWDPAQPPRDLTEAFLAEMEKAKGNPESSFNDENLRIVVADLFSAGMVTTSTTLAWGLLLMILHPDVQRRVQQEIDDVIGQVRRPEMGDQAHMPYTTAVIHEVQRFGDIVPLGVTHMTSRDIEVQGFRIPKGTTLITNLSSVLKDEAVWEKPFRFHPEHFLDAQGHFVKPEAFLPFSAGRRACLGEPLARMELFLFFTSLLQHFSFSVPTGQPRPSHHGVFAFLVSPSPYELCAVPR

CYP 1A2 = target: T3, CYP 1A2 (Homo sapiens, UniProt P05177); assay: CYP inhibition; type: in vitro ADME; conditions: concentrations up to 10 uM
T3 sequence (P05177 1-516): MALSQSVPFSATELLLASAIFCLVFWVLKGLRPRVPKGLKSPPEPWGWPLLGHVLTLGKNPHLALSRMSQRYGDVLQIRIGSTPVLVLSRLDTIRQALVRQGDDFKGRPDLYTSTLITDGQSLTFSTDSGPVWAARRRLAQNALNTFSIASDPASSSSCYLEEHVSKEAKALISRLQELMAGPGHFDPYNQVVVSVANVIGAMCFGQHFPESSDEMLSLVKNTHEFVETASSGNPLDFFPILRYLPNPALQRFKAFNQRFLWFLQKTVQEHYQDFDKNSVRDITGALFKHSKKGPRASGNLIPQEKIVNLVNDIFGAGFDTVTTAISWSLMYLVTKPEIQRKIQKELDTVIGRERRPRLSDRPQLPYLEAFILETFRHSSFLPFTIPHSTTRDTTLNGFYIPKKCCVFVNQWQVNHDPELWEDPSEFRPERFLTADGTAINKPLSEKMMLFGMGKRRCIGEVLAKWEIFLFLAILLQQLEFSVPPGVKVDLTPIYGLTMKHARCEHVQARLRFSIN

CYP 3A4 = CYP 3A4 (Homo sapiens, UniProt P08684); assay: CYP inhibition; type: in vitro ADME; conditions: concentrations up to 10 uM
CYP 3A4, sequence (P08684 whole entry): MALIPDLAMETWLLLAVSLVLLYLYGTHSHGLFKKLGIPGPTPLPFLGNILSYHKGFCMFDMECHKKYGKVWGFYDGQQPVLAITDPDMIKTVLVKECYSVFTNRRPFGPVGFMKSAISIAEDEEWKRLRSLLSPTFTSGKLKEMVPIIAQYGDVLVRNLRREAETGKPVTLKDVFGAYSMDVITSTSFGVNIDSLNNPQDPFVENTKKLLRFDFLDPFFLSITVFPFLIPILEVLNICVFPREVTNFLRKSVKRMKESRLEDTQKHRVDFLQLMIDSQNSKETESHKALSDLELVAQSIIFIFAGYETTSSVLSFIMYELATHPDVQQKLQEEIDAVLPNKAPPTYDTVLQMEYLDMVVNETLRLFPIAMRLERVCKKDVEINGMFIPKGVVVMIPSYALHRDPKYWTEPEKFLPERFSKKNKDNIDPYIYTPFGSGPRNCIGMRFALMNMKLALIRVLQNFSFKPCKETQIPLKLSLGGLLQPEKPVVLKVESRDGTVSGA

[8] = test system: androgen-dependent reproductive organs; assay: Weight of androgen-dependent reproductive organs in rats, 14 days; type: in vivo, male rats; conditions: 30, 100 and 300 mg/kg/day po
[9] = Plasma protein binding by equilibrium dialysis, mouse; type: in vitro ADME; conditions: Mice plasma, 1 uM, equilibrium dialysis 4h 37C
Dog pharmacokinetics = type: in vivo, male beagle dogs; conditions: multiple oral doses in dogs
GABA receptors [10] = assay: [3H]GABA binding, rat cerebral cortex membranes; conditions: 10uM
GABA receptors [11] = conditions: read-out: IC50, GABA receptors; ref [6]; cited from earlier work
[12] = 2 mg/kg, Prostate, single IV 2 mg/kg
[13] = 2 mg/kg, brain, single IV 2 mg/kg
[14] = 2 mg/kg, plasma, single IV 2 mg/kg
[15] = 1 mg/kg, Prostate, single IV 1 mg/kg
[16] = 1 mg/kg, brain, single IV 1 mg/kg
[17] = 1 mg/kg, plasma, single IV 1 mg/kg

## CNC(=O)c1ccc(N2C(=S)N(c3ccc(C#N)c(C(F)(F)F)c3)C(=O)[C@]23CCOC3)cc1F [ONC1-13B, 4-[(R)-3-(4-Cyano-3-trifluoromethyl-phenyl)-4-oxo-2-thioxo-7-oxa-1,3-diaza-spiro[4.4]non-1-yl]-2-fluoro-N-methyl-benzamide]
[1]; 30 mg/kg po
  Concentration of spermatozoon in epididymis, M±m: 29,00 ± 2,73 х 10^6/ml
[1]; 300 mg/kg po
  Concentration of spermatozoon in epididymis, M±m: 16,00 ± 2,37 х 10^6/ml
[2]
  Bound fraction: 89.3%
CYP 2C19
  inhibition of CYP 2C19 activity: doesn`t inhibit
Rat pharmacokinetics; Multiple PO 100 mg/kg
  C24h: 2 794 ng/mL
Rat pharmacokinetics; Multiple PO 300 mg/kg
  C24h: 2 122 ng/mL
Rat pharmacokinetics; Single IV 1 mg/kg
  Vss_obs: 2.0 L/kg
  Сl: 6.4 mL/min/kg
Rat pharmacokinetics; iv, 1 mg/kg
  AUC(0-inf): 2.57 µg·h/mL
  k el: 4.64e-05 s⁻¹
Rat pharmacokinetics; po, 5 mg/kg
  MRT inf: 7 h
  concentration at 24 h: 51 ng/mL
  k el: 3.61e-05 s⁻¹
Rat pharmacokinetics; po, 30 mg/kg
  AUC(0-inf): 95 µg·h/mL
  Cmax: 7160 ng/mL
  MRT inf: 4 h
  Tmax: 4 h
  concentration at 24 h: 159 ng/mL
  half-life: 4 h
  k el: 5.28e-05 s⁻¹
Rat pharmacokinetics; po, 100 mg/kg
  AUC(0-inf): 268 µg·h/mL
  Cmax: 16400 ng/mL
  MRT inf: 10 h
  Tmax: 4 h
  half-life: 8 h
  k el: 2.5e-05 s⁻¹
Rat pharmacokinetics; po, 300 mg/kg
  AUC(0-inf): 314 µg·h/mL
  Cmax: 20500 ng/mL
  MRT inf: 7 h
  Tmax: 4 h
  half-life: 6 h
  k el: 3.06e-05 s⁻¹
LnCaP-Z2 tumors; 20 mg/kg twice daily
  antitumor efficacy, in words: highest antitumor efficacy
LnCaP-Z2 tumors; 20 mg/kg twice daily po, 21 days
  tumors regressed: 4 of 8
LnCaP-Z2 tumors; once daily at 20 or 50 mg/kg, vs MDV3100 10mg/kg once daily
  antitumor efficacy, in words: comparable to MDV3100
AR
  inhibition of 6a-Fluotestosterone induced AR nuclear translocation, in words: completely inhibit
CYP3A
  CYP3A induction, in words: no activity
CYP3A; 1 uM, listed as ONC1-0013B
  CYP 3A induction, Positive control, %: 0.0±2.0% and 3.3±0.6%
CYP3A; 10uM
  fold less potent in CYP3A induction compared to MDV3100 and ARN-509: ~ 2 fold
CYP3A; 10 uM, listed as ONC1-0013B
  CYP 3A induction, Positive control, %: 51.3±3.5% and 42.0±6.1%
[3]; 2 mg/kg
  Kp: 1.2 to 1.6
  Kp at 30 min: 1.55 ± 0.08
  Kp at 120 min: 1.2 ± 0.36
[3]; [12]
  concentration at 30 min: 1160 ± 164 ng/g
  concentration at 120 min: 625 ± 108 ng/g
[3]; [13]
  concentration at 30 min: 145 ± 22 ng/g
  concentration at 120 min: 89 ± 10 ng/g
[3]; [14]
  concentration at 30 min: 746 ± 104 ng/mL
  concentration at 120 min: 522 ± 57 ng/mL
[4]
  Bound fraction: 89.5%
[5]
  fold more efficient than bicalutamide in inhibiting DHT-induced PSA expression: around 10 fold
[6]
  Bound fraction: 89.7%
[7]; 20 mg/kg
  Kp at 24 h: 0.78 ± 0.08
  concentration at 24 h: 76.2 ng/mL and 52.6 ng/g
[7]; 50 mg/kg
  Kp at 24 h: 0.77 ± 0.13
  concentration at 24 h: 154 ng/mL and 138 ng/g
[7]; po, 20 mg/kg
  Kp at 16 h: 0.72 ± 0.05
  concentration at 16 h: 456 ng/mL and 442 ng/g
AR-LBD
  IC50: 19.9 µM
CYP 2C9
  inhibition of CYP 2C9 activity: doesn`t inhibit
CYP 2D6
  inhibition of CYP 2D6 activity: doesn`t inhibit
CYP 1A2
  inhibition of CYP 1A2 activity: doesn`t inhibit
CYP 3A4
  inhibition of CYP 3A4 activity: doesn`t inhibit
[8]
  weight of prostate, epididymis and seminal vesicles, in words: significantly and dose-dependently decreases
[9]
  Bound fraction: 90.7%
Dog pharmacokinetics
  steady-state reached after: 10 administrations
GABA receptors [10]
  inhibition of [3H]GABA specific binding: 42%

## CNC(=O)c1ccc(N2C(=S)N(c3ccc(C#N)c(C(F)(F)F)c3)C(=O)C2(C)C)cc1F [MDV3100]
[2]
  Bound fraction: 98.4%
CYP3A
  CYP3A induction, in words: still active
CYP3A; 1 uM
  CYP 3A induction, Positive control, %: 10.0±2.0%
CYP3A; 10 uM
  CYP 3A induction, Positive control, %: 73.3±6.8%
[3]; 2 mg/kg
  Kp at 30 min: 0.39 ± 0.03
  Kp at 120 min: 0.33 ± 0.16
[3]; [12]
  concentration at 30 min: 102 ± 4 ng/g
  concentration at 120 min: 124 ± 27 ng/g
[3]; [13]
  concentration at 30 min: 164 ± 19 ng/g
  concentration at 120 min: 152 ± 31 ng/g
[3]; [14]
  concentration at 30 min: 263 ± 19 ng/mL
  concentration at 120 min: 377 ± 153 ng/mL
[4]
  Bound fraction: 97.3%
[6]
  Bound fraction: 96.4%
[7]; 10 mg/kg
  Kp at 24 h: 0.53 ± 0.15

## CC(O)(CS(=O)(=O)c1ccc(F)cc1)C(=O)Nc1ccc(C#N)c(C(F)(F)F)c1 (stereo not shown) [Bicalutamide, reference compound]
LnCaP-Z2 tumors; 50 mg/kg once daily
  antitumor efficacy, in words: less effective
[7]; 50 mg/kg
  Kp at 24 h: 2.5 ± 1.36
  concentration at 24 h: 3250 ng/mL and 8740 ng/g

## CNC(=O)c1ccc(N2C(=S)N(c3cnc(C#N)c(C(F)(F)F)c3)C(=O)C23CCC3)cc1F [ARN-509]
CYP3A
  CYP3A induction, in words: still active
CYP3A; 1 uM
  CYP 3A induction, Positive control, %: 16.3±2.5%
CYP3A; 10 uM
  CYP 3A induction, Positive control, %: 102.7±13.0%
[3]; 1 mg/kg
  Kp at 30 min: 1.94 ± 0.24
  Kp at 120 min: 3.15 ± 0.94
[3]; [15]
  concentration at 30 min: 487 ± 73 ng/g
  concentration at 120 min: 482 ± 120 ng/g
[3]; [16]
  concentration at 30 min: 241 ± 21 ng/g
  concentration at 120 min: 176 ± 31 ng/g
[3]; [17]
  concentration at 30 min: 251 ± 29 ng/mL
  concentration at 120 min: 153 ± 10 ng/mL
GABA receptors [11]
  IC50: 3 µM

— paper PMC3909768 (Journal of Cancer, 2014)
